Data reported in ChEMBL document CHEMBL4819006, “1,4,6-Trisubstituted imidazo[4,5-c]pyridines as inhibitors of Bruton's tyrosine kinase” (Eur J Med Chem, 2021).
Calls of active or inactive are those of the source. The calls are words filed in the database; no cut-off is given here.

Tests used:
[1] = target: T1, Mitogen-activated protein kinase; ERK1/ERK2 (Homo sapiens) (UniProt P27361+P28482); test: Inhibition of ERK1/2 in human Ramos cells assessed as reduction in ERK1/2 phosphorylation at 0.125 to 1 uM measured after 24 hrs by western blot assay; format: cell-based; conditions: dose 0.125-1 µM
T1 sequence (P27361 whole entry, looked up): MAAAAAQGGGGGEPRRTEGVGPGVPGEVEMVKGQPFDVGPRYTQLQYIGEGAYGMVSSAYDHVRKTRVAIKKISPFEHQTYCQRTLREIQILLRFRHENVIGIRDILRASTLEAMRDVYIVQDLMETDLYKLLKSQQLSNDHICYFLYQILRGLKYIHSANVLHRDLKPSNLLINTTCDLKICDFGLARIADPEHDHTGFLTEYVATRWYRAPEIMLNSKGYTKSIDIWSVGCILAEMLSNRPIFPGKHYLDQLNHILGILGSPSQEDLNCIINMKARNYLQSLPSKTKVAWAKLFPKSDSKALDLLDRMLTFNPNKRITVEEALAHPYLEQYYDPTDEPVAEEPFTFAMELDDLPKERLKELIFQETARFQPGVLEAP
T1 sequence (P28482 whole entry, looked up): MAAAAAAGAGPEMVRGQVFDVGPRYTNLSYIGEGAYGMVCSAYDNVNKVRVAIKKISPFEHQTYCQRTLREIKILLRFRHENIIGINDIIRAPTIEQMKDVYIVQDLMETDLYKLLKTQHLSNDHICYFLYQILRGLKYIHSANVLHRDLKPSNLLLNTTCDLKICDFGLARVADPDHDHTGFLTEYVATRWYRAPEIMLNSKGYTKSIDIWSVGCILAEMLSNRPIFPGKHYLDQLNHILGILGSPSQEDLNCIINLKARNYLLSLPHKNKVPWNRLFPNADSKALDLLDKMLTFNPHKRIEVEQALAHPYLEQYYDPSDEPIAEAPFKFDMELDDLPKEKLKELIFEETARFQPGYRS

[2] = target: T1, Mitogen-activated protein kinase; ERK1/ERK2 (Homo sapiens); test: Inhibition of ERK1/2 in human UPF7U cells assessed as reduction in ERK1/2 phosphorylation at 0.125 to 1 uM measured after 24 hrs by western blot assay; format: cell-based; conditions: dose 0.125-1 µM

For `c1cn2cc(-c3ccc4cn[nH]c4c3)nc(Nc3ccc(N4CCOCC4)cc3)c2n1`, the inhibition [1] was “Active” and the inhibition [2] was “Active”.
